Measurements published in patent publication US20260165983A1, “VITAMIN A FORMULATION” (ADISSEO FRANCE S.A.S., priority 2020, published 2026).

Tests used:
[1] = Dynamic oxidation test by DSC (differential scanning calorimeter) under oxygen flow; format: physicochemical; conditions: oxygen flow 50 ml/min; vitamin A acetate with 20% by weight antioxidant; higher temperature = higher antioxidant power
Description: (§1) The antioxidant power measurement methods used in the examples for antioxidant and vitamin A (as vitamin A acetate) mixtures are shown below.
1) Dynamic Oxidation Test by DSC (Differential Scanning Calorimeter)
It is carried out under oxygen flow (50 ml/min) then the temperature is raised to a temperature above the melting point of vitamin A (i.e. above 60° C.).
The oxidation corresponds to an exothermic phenomenon which occurs at a given temperature. For BHT, it occurs at 153° C. The higher the oxidation temperature, the higher the antioxidant power.
All the samples having a temperature greater than or equal to 120° C. will be retained for a much longer Oxipres test.

[2] = Oxipres test (oxygen consumption under O2 pressure); format: physicochemical
Description: as §1
This test consists of putting the samples under O2 pressure at a given temperature. The method allows determining the kinetics of oxygen consumption, expressed by a variation of O2 (ΔP in bars), this variation being all the smaller as the antioxidant power is high.

Row | DSC DYN Onset (oxidation temperature) [1] | Oxipres Time ([2]; under O2 pressure at a given temperature) | Oxipres ΔP (variation of O2) ([2]; under O2 pressure, smaller ΔP = higher antioxidant power) | SMILES
1 | 153 °C |  |  | Cc1cc(C(C)(C)C)c(O)c(C(C)(C)C)c1 [BHT, 2,6-di-tert-butyl-4-methyl-phenol, reference compound]
2 | 60 °C | 0 h | 5.0 Bars | CC(=O)OC/C=C(C)/C=C/C=C(C)/C=C/C1=C(C)CCCC1(C)C [Sample 1, vitamin A acetate]
